Measurements published in patent US20250270170A1, “2,3-DIMETHOXY-5-METHYL-1,4-BENZOQUINONE ALKYL ALCOHOL DERIVATIVE AND USE THEREOF” (BEIJING ANJIANXI BIO-MEDICAL TECHNOLOGY CO., LTD., priority 2021, published 2025).
“Also recorded” adds a separate entry of the source. Marks after values point to notes of the source that are not given here.

Tests used:
[1] = test system: human gastric cancer NCI-N87 transplanted tumor; assay: Example 3: tumor growth in NCI-N87 transplanted tumor model in nude mice; format: in vivo, BALB/c nude mice
Description: Female BALB/c nude mice (age: 6 to 7 weeks) were purchased from Beijing Vital River Laboratory Animal Technology Co., Ltd. The mice were raised in an SPF animal room at a temperature of 20 to 25° C., a relative humidity of 40% to 70%, and a cycle of 12 hours of light and 12 hours of dark. The animals had free access to water and food. After about 1 week of normal feeding, mice with good physical condition after the veterinary examination were selected for this assay. Before grouping, a marker was used to mark on the base of the animals' tail. After grouping, each animal was marked with an ear cutout.
The solution was prepared before each administration. An appropriate amount of DDP was weighed and put into a glass bottle. Then, an appropriate volume of physiological saline was added to the bottle, and vortexed (may be heated in a water bath to 50 to 60° C.) to completely dissolve the drug.
An appropriate amount of the compound was weighed and added to an appropriate volume of dimethylacetamide (DMA). The mixture was vortexed to prepare a stock solution (8 mg·mL^−1). The stock solution was prepared once a week, divided into packages and then stored in a 2 to 8° C. refrigerator. One tube was taken out before each administration, and an appropriate volume of 30% Solutol and PEG400 was added while vortexing. The mixture was vortexed and mixed well. Then, an appropriate volume of physiological saline was added, and mixed well to give an administration formulation with a concentration of 0.4 mg·mL^−1, in which the volume ratio of DMA: 30% Solutol: PEG 400: physiological saline was 5:20:20:55.
Human gastric cancer cells NCI-N87 were obtained from the Cell Bank of the Type Culture Collection Committee of Chinese Academy of Sciences (cryopreserved in liquid nitrogen in the laboratory).
NCI-N87 cells were routinely cultured in a RPMI-1640 culture medium containing 10% fetal bovine serum under culture conditions of 37° C. and 5% CO2. The cells were digested with 0.25% trypsin, and passaged according to the cell growth conditions with a passaging ratio of 1:3 to 1:5.
The NCI-N87 cells in the logarithmic growth phase were collected, counted and resuspended in a serum-free RPMI-1640 medium, and the cell concentration was adjusted to 5×10^7 cells/mL. The cells were pipetted with a pipette to disperse them evenly, and the cells were put into a 50-mL centrifuge tube, which was placed in an ice box. A 1-mL syringe was used to draw the cell suspension, which was injected subcutaneously into the axilla of the front right limb of a nude mouse. Each animal was inoculated with 100 μL (5×10^6 cells/mouse) to establish an NCI-N87 transplanted tumor model in nude mice. After the inoculation, the animal status and tumor growth were regularly observed, and the tumor diameter was measured using an electronic vernier caliper. The data were input into an Excel spreadsheet to calculate the tumor volume. When the tumor volume reached 100 to 300 mm^3, 72 animals in good health and with similar tumor volumes were selected and divided into 9 groups (n=8) using randomized block method. The day of grouping was regarded as the first day of the assay (D1). After the start of the assay, the tumor diameter was measured twice a week, the tumor volume was calculated, and the animal body weight was also weighed and recorded.
The calculation formula of tumor volume (TV) is as follows: […]
wherein l represents the long diameter of a tumor (mm); and w represents the short diameter of a tumor (mm).
On the last day of the assay (D44), the animals were anesthetized using CO2 inhalation 1 hour after administration (R01) and sacrificed, and tumor tissues were collected, weighed, and photographed.
The calculation formula of tumor growth inhibition rate TGI (%) is: […]

[2] = test system: VEGF/VEGFR/p-VEGFR and other proteins in NCI-N87 transplanted tumor tissues; assay: Example 4: Western blot of NCI-N87 transplanted tumor tissue proteins; format: in vivo, nude mice; details: Western blot grayscale vs blank solvent group, compound of formula (I) 2 mg/kg
Description: Western Blot technology was used to quantitatively detect the expression of VEGF/VEGFR, Survivin and other proteins in tumor tissues. […] In this study, 50 μg of tumor tissue proteins were added to each well, and the working concentrations of the antibodies were diluted according to the instructions. Briefly: the tumor tissue was taken, lysed with an RIPA protein lysis solution containing 1% PMSF and mixed protease inhibitors, and centrifuged at 12000×g for 20 min to take the supernatant; the concentration of proteins was detected by BCA method; 10% SDS-PAGE gel electrophoresis was performed; the proteins from SDS-PAGE gel were transfered to a PVDF membrane by semi-dry […]; the membrane was blocked with a fast blocking buffer for 10 minutes, and a primary antibody at corresponding working concentration was added, and incubated at 4° C. overnight; the membrane was washed with TBST for 3 times, and incubated with a secondary antibody at room temperature for 1 h; after washing the membrane three times, an image was developed and saved, and the grayscale values were analyzed with Image lab; the anti-Vinculin antibody was used as an internal reference control antibody.
The grayscale of the Western blot bands were calculated with Image J software, and Graphpad Prism 5 was used for related statistical processing. A two-sided t-test was used for comparison between two groups. P>0.05 means no significance (NS), P<0.05 is *, […], and P<0.001 is ***.

[3] = D16, DDP 4/4/5/5 mg/kg i.p. QW×4
[4] = D20, DDP 4/4/5/5 mg/kg i.p. QW×4
[5] = D23, DDP 4/4/5/5 mg/kg i.p. QW×4
[6] = D27, DDP 4/4/5/5 mg/kg i.p. QW×4
[7] = D30, DDP 4/4/5/5 mg/kg i.p. QW×4
[8] = D34, DDP 4/4/5/5 mg/kg i.p. QW×4
[9] = D37, DDP 4/4/5/5 mg/kg i.p. QW×4
[10] = D44, DDP 4/4/5/5 mg/kg i.p. QW×4

In the case of N.N.[Cl][Pt][Cl] [DDP, cisplatin], the Mean tumor volume ([1]; D13, DDP 4/4/5/5 mg/kg i.p. QW×4) is reported as 141 ± 9 mm^3, the Mean tumor volume [1, 3] is reported as 194 ± 18 mm^3 and the “tumor growth inhibition rate” value [1, 3] is reported as “(36%)”. For the same compound, the Mean tumor volume [1, 4] was 245 ± 22 mm^3, the “tumor growth inhibition rate” value [1, 4] was “(37%)” and the Mean tumor volume [1, 5] was 276 ± 28* mm^3. The “tumor growth inhibition rate” value [1, 5] was “(43%)”, the Mean tumor volume [1, 6] was 351 ± 22** mm^3 and the “tumor growth inhibition rate” value [1, 6] was “(46%)”. The Mean tumor volume [1, 7] was 413 ± 27** mm^3, the “tumor growth inhibition rate” value [1, 7] was “(51%)” and the Mean tumor volume [1, 8] was 492 ± 33** mm^3. The “tumor growth inhibition rate” value [1, 8] was “(54%)”, the Mean tumor volume [1, 9] was 580 ± 47** mm^3 and the “tumor growth inhibition rate” value [1, 9] was “(55%)”. The Mean tumor volume [1, 10] was 684 ± 45** mm^3, the “tumor growth inhibition rate” value [1, 10] was “(56%)” and the “expression of CyclinD1” value [2] was “up-regulated”. The “expression of VEGFA” value [2] was “down-regulated”, the “expression of VEGFR2” value [2] was “up-regulated” and the “expression of anti-apoptotic protein Survivin” value [2] was “down-regulated”. For the same compound, the “expression of cell cycle regulatory protein P21” value [2] was “down-regulated”, the “expression of p-VEGFR2” value [2] was “down-regulated” and the “expression of β-catenin” value [2] was “up-regulated”.

Work on COC1=C(OC)C(=O)C(CCCCCCCCCCOC(=O)Cc2c(C)n(C(=O)c3ccc(Cl)cc3)c3ccc(OC)cc23)=C(C)C1=O [compound of formula (I)] yielded a Mean tumor volume ([1]; D13, 2 mg/kg i.g. BID×28) of 141 ± 9 mm^3, a Mean tumor volume ([1]; D13, 6 mg/kg i.g. BID×28) of 140 ± 8 mm^3 and a Mean tumor volume ([1]; D13, 18 mg/kg i.g. BID×28) of 134 ± 8 mm^3. For the same compound, the Mean tumor volume ([1]; D16, 2 mg/kg i.g. BID×28) was 180 ± 17 mm^3, the “tumor growth inhibition rate” value ([1]; D16, 2 mg/kg i.g. BID×28) was “(52%)” and the Mean tumor volume ([1]; D16, 6 mg/kg i.g. BID×28) was 183 ± 10 mm^3. For the same compound, the “tumor growth inhibition rate” value ([1]; D16, 6 mg/kg i.g. BID×28) was “(48%)”, the Mean tumor volume ([1]; D16, 18 mg/kg i.g. BID×28) was 175 ± 19 mm^3 and the “tumor growth inhibition rate” value ([1]; D16, 18 mg/kg i.g. BID×28) was “(50%)”. The Mean tumor volume ([1]; D20, 2 mg/kg i.g. BID×28) was 218 ± 17** mm^3, the “tumor growth inhibition rate” value ([1]; D20, 2 mg/kg i.g. BID×28) was “(53%)” and the Mean tumor volume ([1]; D20, 6 mg/kg i.g. BID×28) was 220 ± 11** mm^3. The “tumor growth inhibition rate” value ([1]; D20, 6 mg/kg i.g. BID×28) was “(51%)”, the Mean tumor volume ([1]; D20, 18 mg/kg i.g. BID×28) was 209 ± 27* mm^3 and the “tumor growth inhibition rate” value ([1]; D20, 18 mg/kg i.g. BID×28) was “(54%)”. For the same compound, the Mean tumor volume ([1]; D23, 2 mg/kg i.g. BID×28) was 253 ± 24** mm^3, the “tumor growth inhibition rate” value ([1]; D23, 2 mg/kg i.g. BID×28) was “(53%)” and the Mean tumor volume ([1]; D23, 6 mg/kg i.g. BID×28) was 255 ± 16** mm^3. For the same compound, the “tumor growth inhibition rate” value ([1]; D23, 6 mg/kg i.g. BID×28) was “(52%)”, the Mean tumor volume ([1]; D23, 18 mg/kg i.g. BID×28) was 245 ± 36* mm^3 and the “tumor growth inhibition rate” value ([1]; D23, 18 mg/kg i.g. BID×28) was “(54%)”. The Mean tumor volume ([1]; D27, 2 mg/kg i.g. BID×28) was 294 ± 30** mm^3, the “tumor growth inhibition rate” value ([1]; D27, 2 mg/kg i.g. BID×28) was “(60%)” and the Mean tumor volume ([1]; D27, 6 mg/kg i.g. BID×28) was 302 ± 24** mm^3. For the same compound, the “tumor growth inhibition rate” value ([1]; D27, 6 mg/kg i.g. BID×28) was “(58%)”, the Mean tumor volume ([1]; D27, 18 mg/kg i.g. BID×28) was 297 ± 48** mm^3 and the “tumor growth inhibition rate” value ([1]; D27, 18 mg/kg i.g. BID×28) was “(58%)”. The Mean tumor volume ([1]; D30, 2 mg/kg i.g. BID×28) was 332 ± 32** mm^3, the “tumor growth inhibition rate” value ([1]; D30, 2 mg/kg i.g. BID×28) was “(65%)” and the Mean tumor volume ([1]; D30, 6 mg/kg i.g. BID×28) was 348 ± 31** mm^3. The “tumor growth inhibition rate” value ([1]; D30, 6 mg/kg i.g. BID×28) was “(62%)”, the Mean tumor volume ([1]; D30, 18 mg/kg i.g. BID×28) was 354 ± 64** mm^3 and the “tumor growth inhibition rate” value ([1]; D30, 18 mg/kg i.g. BID×28) was “(60%)”. For the same compound, the Mean tumor volume ([1]; D34, 2 mg/kg i.g. BID×28) was 370 ± 41** mm^3, the “tumor growth inhibition rate” value ([1]; D34, 2 mg/kg i.g. BID×28) was “(70%)” and the Mean tumor volume ([1]; D34, 6 mg/kg i.g. BID×28) was 412 ± 37** mm^3. The “tumor growth inhibition rate” value ([1]; D34, 6 mg/kg i.g. BID×28) was “(64%)”, the Mean tumor volume ([1]; D34, 18 mg/kg i.g. BID×28) was 444 ± 79** mm^3 and the “tumor growth inhibition rate” value ([1]; D34, 18 mg/kg i.g. BID×28) was “(59%)”. The Mean tumor volume ([1]; D37, 2 mg/kg i.g. BID×28) was 450 ± 46** mm^3, the “tumor growth inhibition rate” value ([1]; D37, 2 mg/kg i.g. BID×28) was “(68%)” and the Mean tumor volume ([1]; D37, 6 mg/kg i.g. BID×28) was 508 ± 38** mm^3. The “tumor growth inhibition rate” value ([1]; D37, 6 mg/kg i.g. BID×28) was “(62%)”, the Mean tumor volume ([1]; D37, 18 mg/kg i.g. BID×28) was 492 ± 87** mm^3 and the “tumor growth inhibition rate” value ([1]; D37, 18 mg/kg i.g. BID×28) was “(64%)”. The Mean tumor volume ([1]; D44, 2 mg/kg i.g. BID×28) was 536 ± 52** mm^3, the “tumor growth inhibition rate” value ([1]; D44, 2 mg/kg i.g. BID×28) was “(68%)” and the Mean tumor volume ([1]; D44, 6 mg/kg i.g. BID×28) was 595 ± 57** mm^3. The “tumor growth inhibition rate” value ([1]; D44, 6 mg/kg i.g. BID×28) was “(63%)”, the Mean tumor volume ([1]; D44, 18 mg/kg i.g. BID×28) was 590 ± 113** mm^3 and the “tumor growth inhibition rate” value ([1]; D44, 18 mg/kg i.g. BID×28) was “(63%)”. The “anti-tumor effect compared with cisplatin” value ([1]; NCI-N87 transplanted tumor model, summary of Table 5) was “better anti-tumor effect”, the “expression of CyclinD1” value ([2]; 2 mg/kg) was “down-regulated; also recorded: downregulated” and the “expression of PCNA” value ([2]; 2 mg/kg) was “up-regulated; also recorded: upregulated”. The “expression of VEGFA” value ([2]; 2 mg/kg) was “down-regulated; also recorded: downregulated”, the “expression of VEGFR2” value ([2]; 2 mg/kg) was “down-regulated; also recorded: downregulated” and the “expression of anti-apoptotic protein Survivin” value ([2]; 2 mg/kg) was “down-regulated; also recorded: downregulated”. For the same compound, the “expression of cell cycle regulatory protein P21” value ([2]; 2 mg/kg) was “up-regulated; also recorded: upregulated”, the “expression of p-VEGFR2” value ([2]; 2 mg/kg) was “down-regulated; also recorded: downregulated” and the “expression of pro-apoptotic Bax” value ([2]; 2 mg/kg) was “down-regulated; also recorded: downregulated”. For the same compound, the “expression of β-catenin” value ([2]; 2 mg/kg) was “down-regulated; also recorded: downregulated”.
